Measurements reported in PubChem BioAssay AID1918945 (Molecular Pharmacology Branch, DTP, NCI, 2023).

Test system: 883617-216-R-J1-PDC complex spheroid viability
Assay: Anticancer human tumor 883617-216-R-J1-PDC patient-derived bladder carcinoma cell line growth inhibition
Conditions: for IC50: curve of first compound; for viability, T/C: stronger effect = lower value; active = viability on the fitted dose curve at most 10% of control; inactive = the rest
How it was run: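 Complex spheroids of tumor cells with HUVEC and human MSCs, exposed to iadademstat combined with other agents. Each agent tested in half-log steps from near clinical Cmax (else 10 microM top), DMSO ≤0.25%.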

[1] = second compound 0.1 µM, first compound 0.00949 µM
[2] = second compound 0.1 µM, first compound 0.03 µM
[3] = second compound 0.1 µM, first compound 0.0949 µM
[4] = second compound 0.1 µM, first compound 0.3 µM
[5] = second compound 0.316 µM, first compound 0.00949 µM
[6] = second compound 0.316 µM, first compound 0.03 µM
[7] = second compound 0.316 µM, first compound 0.0949 µM
[8] = second compound 0.316 µM, first compound 0.3 µM
[9] = second compound 1 µM, first compound 0.00949 µM
[10] = second compound 1 µM, first compound 0.03 µM
[11] = second compound 1 µM, first compound 0.0949 µM
[12] = second compound 1 µM, first compound 0.3 µM
[13] = second compound 3.16 µM, first compound 0.00949 µM
[14] = second compound 3.16 µM, first compound 0.03 µM
[15] = second compound 3.16 µM, first compound 0.0949 µM
[16] = second compound 3.16 µM, first compound 0.3 µM
[17] = second compound 10 µM, first compound 0.00949 µM
[18] = second compound 10 µM, first compound 0.03 µM
[19] = second compound 10 µM, first compound 0.0949 µM
[20] = second compound 10 µM, first compound 0.3 µM
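Also: exposure lasted seven days after three days of spheroid growth.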
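For viability, T/C in this document: 100% = DMSO vehicle control luminescence.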

CCN(c1cc(-c2ccc(CN3CCOCC3)cc2)cc(C(=O)NCc2c(C)cc(C)[nH]c2=O)c1C)C1CCOCC1 + NC1CCC(NC2CC2c2ccccc2)CC1
inactive: viability, T/C [1] 96.4% | viability, T/C [2] 85% | viability, T/C [3] 86.9% | viability, T/C [4] 84.7% | viability, T/C (second compound 0.1 µM, first compound 0.949 µM) 90.7% | viability, T/C (second compound 0.1 µM, first compound 3 µM) 80.8% | viability, T/C [5] 95.8% | viability, T/C [6] 98.8% | viability, T/C [7] 93.1% | viability, T/C [8] 87.6% | viability, T/C (second compound 0.316 µM, first compound 0.949 µM) 89.1% | viability, T/C (second compound 0.316 µM, first compound 3 µM) 86% | viability, T/C [9] 90.2% | viability, T/C [10] 89.5% | viability, T/C [11] 83.8% | viability, T/C [12] 88.4% | viability, T/C (second compound 1 µM, first compound 0.949 µM) 90% | viability, T/C (second compound 1 µM, first compound 3 µM) 86.3% | viability, T/C [13] 94.5% | viability, T/C [14] 87.7% | viability, T/C [15] 88.3% | viability, T/C [16] 89.9% | viability, T/C (second compound 3.16 µM, first compound 0.949 µM) 87.9% | viability, T/C (second compound 3.16 µM, first compound 3 µM) 93.9% | viability, T/C [17] 97.8% | viability, T/C [18] 91.7% | viability, T/C [19] 90.8% | viability, T/C [20] 96.2% | viability, T/C (second compound 10 µM, first compound 0.949 µM) 94.5% | viability, T/C (second compound 10 µM, first compound 3 µM) 92.8%
> 3000 nM: IC50 (second compound 0.1 µM) | IC50 (second compound 0.316 µM) | IC50 (second compound 1 µM) | IC50 (second compound 3.16 µM) | IC50 (second compound 10 µM)

Nc1ncn(C2CC(O)C(CO)S2)c(=O)n1 (stereo not given) + NC1CCC(NC2CC2c2ccccc2)CC1
inactive: viability, T/C (second compound 0.1 µM, first compound 0.000949 µM) 106% | viability, T/C (second compound 0.1 µM, first compound 0.003 µM) 111% | viability, T/C [1] 101% | viability, T/C [2] 72.9% | viability, T/C [3] 59.1% | viability, T/C [4] 48.3% | viability, T/C (second compound 0.316 µM, first compound 0.000949 µM) 114% | viability, T/C (second compound 0.316 µM, first compound 0.003 µM) 110% | viability, T/C [5] 102% | viability, T/C [6] 68.3% | viability, T/C [7] 60.6% | viability, T/C [8] 52.8% | viability, T/C (second compound 1 µM, first compound 0.000949 µM) 113% | viability, T/C (second compound 1 µM, first compound 0.003 µM) 106% | viability, T/C [9] 97.1% | viability, T/C [10] 75.4% | viability, T/C [11] 57.5% | viability, T/C [12] 50.1% | viability, T/C (second compound 3.16 µM, first compound 0.000949 µM) 101% | viability, T/C (second compound 3.16 µM, first compound 0.003 µM) 106% | viability, T/C [13] 86.1% | viability, T/C [14] 72.8% | viability, T/C [15] 61.4% | viability, T/C [16] 53.7% | viability, T/C (second compound 10 µM, first compound 0.000949 µM) 110% | viability, T/C (second compound 10 µM, first compound 0.003 µM) 114% | viability, T/C [17] 91.3% | viability, T/C [18] 74.8% | viability, T/C [19] 67.7% | viability, T/C [20] 55.6%
291 nM: IC50 (second compound 1 µM)
> 300 nM: IC50 (second compound 0.1 µM) | IC50 (second compound 0.316 µM) | IC50 (second compound 3.16 µM) | IC50 (second compound 10 µM)

O=C(C=Cn1cnc(-c2cc(C(F)(F)F)cc(C(F)(F)F)c2)n1)NNc1cnccn1 + NC1CCC(NC2CC2c2ccccc2)CC1
17 nM: IC50 (second compound 3.16 µM)
20.7 nM: IC50 (second compound 10 µM)
inactive: viability, T/C (second compound 0.1 µM, first compound 0.00316 µM) 87.4% | viability, T/C (second compound 0.1 µM, first compound 0.01 µM) 65.9% | viability, T/C (second compound 0.1 µM, first compound 0.0316 µM) 36.3% | viability, T/C (second compound 0.1 µM, first compound 0.1 µM) 32.7% | viability, T/C (second compound 0.1 µM, first compound 0.316 µM) 28.9% | viability, T/C (second compound 0.1 µM, first compound 1 µM) 26.9% | viability, T/C (second compound 0.316 µM, first compound 0.00316 µM) 102% | viability, T/C (second compound 0.316 µM, first compound 0.01 µM) 60.6% | viability, T/C (second compound 0.316 µM, first compound 0.0316 µM) 39% | viability, T/C (second compound 0.316 µM, first compound 0.1 µM) 31.3% | viability, T/C (second compound 0.316 µM, first compound 0.316 µM) 29.7% | viability, T/C (second compound 0.316 µM, first compound 1 µM) 28.1% | viability, T/C (second compound 1 µM, first compound 0.00316 µM) 87.4% | viability, T/C (second compound 1 µM, first compound 0.01 µM) 51% | viability, T/C (second compound 1 µM, first compound 0.0316 µM) 36.5% | viability, T/C (second compound 1 µM, first compound 0.1 µM) 32.7% | viability, T/C (second compound 1 µM, first compound 0.316 µM) 28.1% | viability, T/C (second compound 1 µM, first compound 1 µM) 26.2% | viability, T/C (second compound 3.16 µM, first compound 0.00316 µM) 99.5% | viability, T/C (second compound 3.16 µM, first compound 0.01 µM) 55.4% | viability, T/C (second compound 3.16 µM, first compound 0.0316 µM) 44% | viability, T/C (second compound 3.16 µM, first compound 0.1 µM) 33% | viability, T/C (second compound 3.16 µM, first compound 0.316 µM) 29.6% | viability, T/C (second compound 3.16 µM, first compound 1 µM) 27.2% | viability, T/C (second compound 10 µM, first compound 0.00316 µM) 99.2% | viability, T/C (second compound 10 µM, first compound 0.01 µM) 63.2% | viability, T/C (second compound 10 µM, first compound 0.0316 µM) 40.7% | viability, T/C (second compound 10 µM, first compound 0.1 µM) 36.8% | viability, T/C (second compound 10 µM, first compound 0.316 µM) 31.8% | viability, T/C (second compound 10 µM, first compound 1 µM) 29.5%
18.8 nM: IC50 (second compound 0.1 µM)
11.4 nM: IC50 (second compound 1 µM)
17.6 nM: IC50 (second compound 0.316 µM)
